The values below come from PubChem BioAssay AID977621 (Broad Institute, 2014).

The subject of this test is E. coli wild-type GFP strain growth, fluorescence, 24 h. The test is described as follows: wild-type E. coli growth inhibition versus H69 humanized strain – H69 mutant RFP, wild-type GFP, cherry-pick, dose response (AID 977621).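 Note: wild-type GFP and H69 mutant RFP strains grown together 50/50 in each well.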
The mark [1] stands for this setting: E. coli mixed culture, 24 h, measured here: total growth OD600, test 2.

SMILES strings stand for the structures. Inconclusive results are not listed. The source made the active and inactive calls.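 Rule for the calls: active = Wild-type ribosome reporter drop at least double the humanized mutant ribosome reporter drop, growth loss under a set limit; inconclusive = no clear call, values can overlap the other calls; inactive = the rest.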 A value given as a limit tells only on which side of the number the result lay.

On to `Cc1cc(C)cc(NC(=O)c2cccc(NC(=O)c3ccco3)c2)c1`, for which the AC50 under setting [1] amounted to 45.6 µM.

Regarding `CC1(C(=O)NS(=O)(=O)c2ccc3c(c2)CCO3)CCN1C(=O)c1ccccc1CCc1ccccc1` (stereo unspecified), the AC50 is > 100 µM (inactive).

In the case of `CCOC(=O)C(CC)Sc1cc(C)nc2ccc(OC)cc12` (stereo unspecified), under setting [1], the AC50 was > 100 µM.

Take `COc1ccc(-c2cn3c(C)c(C(=O)Nc4cccc(C)n4)sc3n2)cc1`: the AC50 was > 100 µM (inactive).

Take `O=C(NCCc1ccc(Cl)cc1)c1ccc2nc[nH]c2c1`: the AC50 is > 100 µM (inactive).

Take `O=C(COC(=O)C12CC3CC(CC(O)(C3)C1)C2)NCCc1ccc(Cl)cc1`: the AC50 is > 100 µM (inactive).

`CC(C)CC#Cc1ccc2c(c1)O[C@@H](CN(C)Cc1ccccn1)[C@H](C)CN([C@H](C)CO)S2(=O)=O`: the AC50 was > 100 µM (inactive).

As for `CC(=O)Nc1ccc(-c2ccnc3c2CC(C)(C(=O)Nc2ccc4c(c2)OCO4)O3)cc1` (stereo unspecified), the half-maximal activity concentration (AC50) under setting [1] was > 100 µM.

On to `C=CCN(c1ccccc1)S(=O)(=O)c1cccc2cccnc12`, for which the AC50 under setting [1] is > 100 µM.

For `O=[N+]([O-])c1ccc2nc(-c3ccccc3[N+](=O)[O-])[nH]c2c1`, the AC50 was > 100 µM (inactive). Also, under setting [1], the AC50 was > 100 µM.

As for `CCCCNc1ccc2c(c1)OC[C@@H](Cc1ccccc1)NS2(=O)=O`, the AC50 was > 100 µM (inactive). For the same compound, the AC50 under setting [1] came out at 32.4 µM.

Consider `C=CCn1c(-c2cc3cccc(OC)c3o2)n[nH]c1=S`, for which the AC50 was > 100 µM (inactive).

For the compound `c1ccc(-n2c(SCc3nc(-c4cccs4)no3)nnc2-c2ccco2)cc1`, the AC50 is > 100 µM (inactive). The compound further registered a half-maximal activity concentration (AC50) under setting [1] of 42.5 µM.

Under setting [1], `Cc1cccc(-c2ccc([C@H]3[C@@H](CO)N4CCCCN(S(=O)(=O)c5ccccc5C)C[C@H]34)cc2)c1` displayed a half-maximal activity concentration (AC50) of 27.2 µM.

For `Cc1cc(NC(=O)CN2CCN(c3cccc(Cl)c3)CC2)no1`, the AC50 was > 100 µM (inactive).

Turning to `Cc1cc(C)c2sc(N(CCN(C)C)C(=O)c3c(F)cccc3F)nc2c1`, the AC50 was > 100 µM (inactive). Moreover, the concentration at half-maximal activity (AC50) under setting [1] was > 100 µM.

In the case of `Clc1ccc(-c2nc(NCCCN3CCOCC3)c3ccccc3n2)cc1`, the AC50 was > 100 µM (inactive).

As to `O=S(=O)(c1ccccc1)N1CCN=C1SCc1cccc(Cl)c1`, the AC50 was > 100 µM (inactive). The same compound showed an AC50 under setting [1] of 35.9 µM.

For `Cc1cc(C)c(NC(=O)C(C)c2cccc(C(=O)c3ccccc3)c2)c(C)c1` (stereo unspecified), under setting [1], the AC50 is 47.2 µM.

`O=C(CSc1nnc(-c2ccccc2F)n1C1CC1)Nc1cccnc1Cl`: the AC50 under setting [1] is > 100 µM.

Consider `O=C(COn1nnc2ccc(C(F)(F)F)cc21)Nc1c(Cl)cccc1Cl`, for which the AC50 was > 100 µM (inactive).

For `O=S1(=O)N[C@H](Cc2ccccc2)COc2cc(N3CCSCC3)ccc21`, under setting [1], the AC50 is > 100 µM.

For `CCOC(=O)Cc1nnc(NC(=O)CSc2nc3ccccc3[nH]2)s1`, the AC50 was > 100 µM (inactive).

As for `CCN(c1ccccc1)S(=O)(=O)c1ccc(OC)c(OC)c1`, the AC50 was > 100 µM (inactive). Besides, the AC50 under setting [1] is > 100 µM.

Take `Cc1cc(C)c(S(=O)(=O)NCCOc2ccccc2)c(C)c1-n1cnnn1`: the AC50 was > 100 µM (inactive).

Turning to `O=C(NCc1cccnc1)c1ccc(COc2ccccc2Br)o1`, the AC50 is > 100 µM (inactive). Moreover, the half-maximal activity concentration (AC50) under setting [1] was 46.2 µM.

Turning to `O=C(C[C@@H]1CC[C@@H]2[C@H](COC[C@H](O)CN2C(=O)Nc2ccc(Cl)cc2)O1)N1CCCCC1`, the AC50 was > 100 µM (inactive). In addition, under setting [1], the AC50 stood at 46 µM.

`CC1=CC(C)(C)N(C(=O)CSc2nnc(C)s2)c2ccc(C)cc21`: the concentration at half-maximal activity (AC50) under setting [1] is > 100 µM.

On to `CO[C@@H]1CN(C)C(=O)c2cc(NC(=O)C3CCCC3)ccc2OC[C@@H](C)N(C(=O)Nc2ccc(C(F)(F)F)cc2)C[C@H]1C`, for which the AC50 was > 100 µM (inactive).

As for `COc1ccc(NS(=O)(=O)c2ccc(Oc3c(C#N)cccc3C#N)cc2)cc1`, the AC50 was > 100 µM (inactive). Under setting [1], this compound gave an AC50 of 27.5 µM.

In turn, `Cc1ccc(C2NC(c3ccc(C)cc3)C(C)C(=O)C2C)cc1` (stereo unspecified) displayed an AC50 under setting [1] of 47.8 µM.

As to `CCOc1cccc(-c2cc(-c3n[nH]c(=S)n3CC)c3ccccc3n2)c1`, under setting [1], the AC50 worked out at 38.3 µM.

Take `CSc1nc2ccc(NS(=O)(=O)c3ccc([N+](=O)[O-])cc3)cc2s1`: the AC50 under setting [1] was < 0.6 µM.

As to `CCOC(=O)c1cc2sccc2n1CCCN1C(=O)c2ccccc2C1=O`, the AC50 is > 100 µM (inactive). Further, under setting [1], the concentration at half-maximal activity (AC50) is > 100 µM.

Regarding `COc1ccc(OC)c(S(=O)(=O)Nc2cccc3ccc(O)cc23)c1`, under setting [1], the AC50 was > 100 µM.

In the case of `C[C@@H]1NS(=O)(=O)c2c(F)cccc2O[C@@H]1c1ccccc1`, the AC50 is > 100 µM (inactive).

`O=C1c2cccc3cccc(c23)C(=O)N1c1ccccc1Cl`: the AC50 is > 100 µM (inactive).

For the compound `COc1ccccc1C1CCN(C(=O)c2ccco2)CC1`, the AC50 under setting [1] was > 100 µM.

Turning to `C[C@@H]1CN([C@H](C)CO)C(=O)c2cccc(NC(=O)c3ccncc3)c2O[C@@H]1CN(C)S(=O)(=O)c1ccc(Cl)cc1`, the AC50 was > 100 µM (inactive). Besides, the AC50 under setting [1] was > 100 µM.

Regarding `CCC(=O)Nc1sc(Cc2ccc3c(c2)OCO3)c(C)c1C(N)=O`, the AC50 was > 100 µM (inactive). Further, the half-maximal activity concentration (AC50) under setting [1] amounted to 51.4 µM.

In the case of `CCN(C(=O)COC(=O)c1cn(-c2ccccc2)nc1-c1ccccc1)C1CCS(=O)(=O)C1` (stereo unspecified), under setting [1], the concentration at half-maximal activity (AC50) was > 100 µM.

Consider `Cc1cc(NC(=O)COC(=O)CSCc2ccc(Cl)c(Cl)c2)no1`, for which the AC50 was > 100 µM (inactive). Moreover, the half-maximal activity concentration (AC50) under setting [1] was > 100 µM.

For `COc1cccc(NC(=O)CN(C)CC(=O)Nc2ccc(Br)cc2)c1`, the AC50 was > 100 µM (inactive).

Turning to `Cc1cc(Br)ccc1SCC(=O)OCC(=O)NCc1ccco1`, the AC50 was > 100 µM (inactive).

As to `COc1ccc(NS(=O)(=O)c2ccc(Cl)c(NC(=O)c3ccccc3F)c2)cc1`, the AC50 is > 100 µM (inactive).

Take `COc1ccc(OC)c(-c2csc(NC(=O)C3COc4ccccc4O3)n2)c1` (stereo unspecified): the AC50 under setting [1] was > 100 µM.

For the compound `COc1cccc(NC(=O)COC(=O)Cc2ccc(Cl)cc2)c1`, the AC50 under setting [1] is > 100 µM.

For the compound `CSc1nc(SC(C)C(=O)O)c2c3c(sc2n1)COC(C)(C)C3` (stereo unspecified), the AC50 was > 100 µM (inactive).

As for `CO[C@@H]1CN(C)C(=O)c2ccc(NC(=O)c3nc4ccccc4s3)cc2OC[C@@H](C)N(Cc2ccncc2)C[C@@H]1C`, the AC50 is 52 µM (inactive).

Regarding `CC(C)CN1C(=O)c2ccc(C(=O)Nc3ccncc3)cc2C1=O`, the AC50 is > 100 µM (inactive). Moreover, the AC50 under setting [1] was > 100 µM.

As for `O=C(CN(CCO)c1ccccc1)Nc1cccc(S(=O)(=O)N2CCCC2)c1`, the AC50 is > 100 µM (inactive).

Under setting [1], `CSc1nc2ccc(NC(=O)c3c(-c4ccccc4)noc3C)cc2s1` registered an AC50 of 46.5 µM.

Regarding `O=C(CN1CCCC1)Nc1ccccc1Sc1ccc(Cl)cc1`, the AC50 is > 100 µM (inactive). The compound also came in with an AC50 under setting [1] of 29.9 µM.

Regarding `COc1cccc(NS(=O)(=O)c2ccc(-c3coc(C)n3)cc2)c1`, the AC50 was > 100 µM (inactive). This compound also returned a half-maximal activity concentration (AC50) under setting [1] of 3.29 µM.

Consider `CCC(=O)Nc1nc2c(OC)ccc(OC)c2s1`, for which the AC50 under setting [1] is > 100 µM.

`Cc1ccccc1CSCC(=O)Nc1ccccc1F`: the AC50 is > 100 µM (inactive).

For the compound `CCc1cc2ccc(OC)cc2nc1SCC(=O)N1CCN(C(=O)c2ccco2)CC1`, the AC50 under setting [1] came to 42.2 µM.

With `COc1ccccc1CC(=O)NCCc1c[nH]c2ccccc12`, the AC50 was > 100 µM (inactive).

As to `N#Cc1ccccc1CSc1nc2ccc(NC(=O)c3ccccc3C(=O)O)cc2s1`, the AC50 was > 100 µM (inactive).

Take `COc1ccccc1CCNC(=O)c1cccc(NC(=O)CC2SC(N3CCCCC3)=NC2=O)c1` (stereo unspecified): the AC50 was > 100 µM (inactive).

Consider `Cc1cc(-c2ccc(C)c(S(=O)(=O)NC(C)Cc3ccco3)c2)on1` (stereo unspecified), for which the AC50 was > 100 µM (inactive). The same compound showed an AC50 under setting [1] of 31 µM.

Regarding `O=C(Nc1ccccc1)N1CCCCN2[C@@H](CO)[C@H](c3ccc(Br)cc3)[C@@H]2C1`, the AC50 is > 100 µM (inactive).

Turning to `COC(=O)COc1ccc(Cl)cc1C1Nc2ccccc2C(=O)N1c1ccc(OC)cc1` (stereo unspecified), the AC50 was > 100 µM (inactive). Besides, the AC50 under setting [1] was > 100 µM.

Turning to `CN1C(=O)c2ccccc2OC1(C)Cc1ccccc1` (stereo unspecified), the AC50 was > 100 µM (inactive). The same compound had an AC50 under setting [1] of 41.6 µM.

`C[C@@H](NC(=O)C[C@@H]1CC[C@@H]2[C@H](COC[C@H](O)CN2C(=O)Nc2cccc(F)c2)O1)c1ccccc1`: the AC50 is > 100 µM (inactive).

On to `O=S1(=O)N[C@@H](Cc2ccccc2)COc2cc(N3CCC[C@H]3CO)ccc21`, for which the AC50 was > 100 µM (inactive).

As to `O=C(c1ccco1)N(CCCN1CCOCC1)c1nc(-c2ccc(F)cc2)cs1`, the AC50 was > 100 µM (inactive).

As for `CCOc1ccc(CCNC(=O)CCc2nc3ccccc3[nH]2)cc1OCC`, the AC50 is > 100 µM (inactive). In addition, the AC50 under setting [1] is > 100 µM.

Regarding `CC1=Nc2cc(C(=O)NCC3CCCO3)ccc2Sc2ccc(Br)cc21` (stereo unspecified), the AC50 was > 100 µM (inactive).

Turning to `COc1ccc(NS(=O)(=O)c2cccc3ccccc23)cc1`, the concentration at half-maximal activity (AC50) under setting [1] amounted to 33.7 µM.

The compound `CCN(c1ccccc1)S(=O)(=O)c1ccc(Cl)c(C(=O)NCc2ccco2)c1` yielded a half-maximal activity concentration (AC50) under setting [1] of 33.8 µM.

Take `Cc1sc2ncnc(N3CCCC(C)C3)c2c1C` (stereo unspecified): the AC50 is > 100 µM (inactive).

As for `O=C(Nc1ccn(Cc2ccc(Cl)cc2)n1)c1ccccc1`, the half-maximal activity concentration (AC50) under setting [1] is > 100 µM.

As for `CSc1nc(SCCN(C)C)c2c3c(sc2n1)COC(C)(C)C3`, the AC50 was > 100 µM (inactive). Also, under setting [1], the AC50 is > 100 µM.

With `COc1ccc(CN(C)C[C@H]2Oc3ccc(NS(=O)(=O)c4ccc(Cl)cc4)cc3CC(=O)N([C@@H](C)CO)C[C@H]2C)cc1`, the half-maximal activity concentration (AC50) under setting [1] was > 100 µM.

Regarding `CCN(CC)S(=O)(=O)c1ccc(O)c(C(=O)OCC(=O)NC23CC4CC(CC(C4)C2)C3)c1`, the AC50 is > 100 µM (inactive). Further, the AC50 under setting [1] was > 100 µM.

On to `Cc1ccc2nc(SCC(=O)c3ccc(O)cc3O)[nH]c2c1`, for which the AC50 is > 100 µM (inactive).

For `COc1ccc(-n2c(-c3ccc(C)cc3)nc3ccccc3c2=O)cc1`, the AC50 was > 100 µM (inactive).

With `Nc1ccccc1C#CC(=O)c1ccccc1`, the AC50 is > 100 µM (inactive).
